{
  "source": "patent US20030165579A1",
  "about": "“Euphorbia antiquorum extract, a pharmaceutical composition containing the same and methods for treatment of cancers” (priority 2002, published 2003)",
  "key": {"[1]": {"system": "P-388 lymphocytic leukemia", "conditions": "mice; cited from earlier work"}, "[2]": {"system": "Ehrlich acites tumor cell", "conditions": "Planta Med. 62, 322-5, 1996; cited from earlier work"}, "[3]": {"system": "COLO 205", "assay": "Cell proliferation assay (MTS) on COLO 205", "format": "cell-based, Human", "conditions": "for Cell Growth: positive control", "protocol": "(§1) The ability of extract of Euphorbia antiquorum described in Example 1 to inhibit the growth of five different human tumor cell lines was tested. The activity of Doxorubicin, a currently clinically used chemotherapeutic agent, against the tumor cell lines was tested as a control.\n(§2) Five human tumor cell lines COLO 205, HT-29, U-937, MOLT4 and HA22T/VGH, were tested in this example (Table 3).\n(§3) All five cancer cell lines were stored in liquid nitrogen. After thawing, cells were maintained as monolayer in appropriate medium (GIBCO, USA) supplemented with 10% fetal bovine serum, sodium bicarbonate, L-glutamine (2 mM), streptomycin (100 μg/ml) and penicillin-G (100 units/ml) in a humidified incubator at 37±1° C. and 5% CO2 in air.\n(§4) Exponentially growing human cancer cells were seeded in an appropriate medium in 96-well ELISA microtiter plates. The number of cells for each cell line plated in 96-well plates was determined from the growth curve obtained in MTS assay (600 to 20,000 cells depending on cell line). These plates of adherent cells were incubated overnight. Six well cultures were used for each concentration of MH801 of the invention and for negative and positive control cultures.\n(§5) MH801 was dissolved in culture medium. […] Since the solution prepared in culture medium at working concentration can be used directly rather than a stock solution at 200 fold concentration in DMSO, culture medium, instead of DMSO, was used as vehicle in the present invention. Maximum concentration for this assay was 10 mg/ml. Serial ten fold dilution was used in this invention, and therefore, the concentrations were 10, 1, 0.1, 0.01 and 0.001 mg/ml. After sufficient mixing, this solution was passed through filter of 0.2 μm pore size for sterility. Filtrate was serially diluted with culture medium to desired concentrations for treatment.\n(§6) After three days of culture, the viable cells were counted by changing the culture medium containing a tetrazolium compound\n(§7) (3-4,5-dimethylthiazol-2-yl)-5(3-carboxymethoxyphenyl)-2-(4-sulfophenyl)-2H-tetrazolium, inner salt and an electron coupling reagent to measure mitochondrial enzyme activity. The absorbance at […] was measured after 2 hours to 4 hours reaction time. Cell growth % is calculated using the following equations: [formula]\n(§8) Doxourbicin was used as positive control for assay system evaluation and was prepared in dimethyl sulfoxide (Merck Art. 2931, Germany) as stock solution to be added to culture medium."}, "[4]": {"system": "HT-29", "assay": "Cell proliferation assay (MTS) on HT-29", "format": "cell-based, Human", "conditions": "for Cell Growth: positive control", "protocol": "as §1, §2, §3, §4\nMH801 was dissolved in culture medium. […] Since the solution prepared in culture medium at working concentration can be used directly rather than a stock solution at 200 fold concentration in DMSO, culture medium, instead of DMSO, was used as vehicle in the present invention. Maximum concentration for this assay was 10 mg/ml. Serial ten fold dilution was used in this invention, and therefore, the concentrations were 10, 1, 0.1, 0.01 and 0.001 mg/ml. […]\nas §6\n(3-4,5-dimethylthiazol-2-yl)-5(3-carboxymethoxyphenyl)-2-(4-sulfophenyl)-2H-tetrazolium, inner salt and an electron coupling reagent to measure mitochondrial enzyme activity. The absorbance at […] was measured after 2 hours to 4 hours reaction time. Cell growth % is calculated using the following equations: [formula] […]"}, "[5]": {"system": "U-937", "assay": "Cell proliferation assay (MTS) on U-937", "format": "cell-based, Human", "conditions": "for Cell Growth: positive control", "protocol": "as §1, §2, §3, §4, §5, §6, §7, §8"}, "[6]": {"system": "MOLT 4", "assay": "Cell proliferation assay (MTS) on MOLT 4", "format": "cell-based, Human", "conditions": "for Cell Growth: positive control", "protocol": "as §1, §2, §3, §4, §5, §6, §7, §8"}, "[7]": {"system": "HA22T/VGH", "assay": "Cell proliferation assay (MTS) on HA22T/VGH", "format": "cell-based, Human", "conditions": "positive control", "protocol": "as §1, §2, §3, §4, §5, §6, §7, §8"}, "[8]": {"system": "tumors", "conditions": "chemotherapy, tumor control; cited from earlier work"}, "[9]": {"system": "hepatoma", "conditions": "cited from earlier work"}},
  "data": [
    {"molecule": "CCCCCCCCCCCCCCCC(=O)OCC1=C[C@@H]2C(=O)[C@]3(C=C(C)[C@H](OC(=O)C(C)C(C)C)[C@@]3(O)[C@@H]1O)[C@H](C)C[C@]1(OC(=O)CCCCCCCCCCC)[C@H]2C1(C)C", "note": "(stereo partly shown) [13-hydroxyingenol-3-(2,3-dimethylbutanoate)-13-dodecanoate-20-hexadecanoate]", "values": [
      {"measurement": "antileukemic activity against P-388 lymphocytic leukemia", "setting": "[1]", "result": "antileukemic effect"}
    ]},
    {"molecule": "C/C=C(\\C)C(=O)O[C@@H]1[C@@H](C)[C@@]2(O)[C@@H](C=C(CO)C[C@]3(O)C(=O)C(C)=C[C@@H]23)[C@@H]2C(C)(C)[C@]12OC(=O)CCCCCCCCC", "note": "[phorbol 12-tiglate 13-decanoate]", "values": [
      {"measurement": "antileukemic activity against P-388 lymphocytic leukemia", "setting": "[1]", "result": "antileukemic activity"}
    ]},
    {"molecule": "9,19-cycloart-23-ene-3 β,24-diol", "values": [
      {"measurement": "inhibitory activity against Ehrlich acites tumor cell", "setting": "[2]", "result": "significant inhibitory activity"}
    ]},
    {"molecule": "COc1cccc2c1C(=O)c1c(O)c3c(c(O)c1C2=O)C[C@@](O)(C(=O)CO)C[C@@H]3O[C@H]1C[C@H](N)[C@H](O)[C@H](C)O1", "note": "[Doxorubicin]", "values": [
      {"measurement": "Cell Growth", "setting": "[3]; COLO 205, 0.058 μg/ml", "result": 63.2, "unit": "%"},
      {"measurement": "Cell Growth", "setting": "[3]; COLO 205, 0.58 μg/ml", "result": 33.8, "unit": "%"},
      {"measurement": "Cell Growth", "setting": "[3]; COLO 205, 5.8 μg/ml", "result": 8.23, "unit": "%"},
      {"measurement": "antiproliferative effect", "setting": "[3]; COLO 205, positive control", "result": "very strong antiproliferative effect"},
      {"measurement": "Cell Growth", "setting": "[4]; HT-29, 1.74 μg/ml", "result": 35, "unit": "%"},
      {"measurement": "Cell Growth", "setting": "[4]; HT-29, 3.48 μg/ml", "result": 15.9, "unit": "%"},
      {"measurement": "antiproliferative effect", "setting": "[4]; HT-29, positive control", "result": "very strong antiproliferative effect"},
      {"measurement": "Cell Growth", "setting": "[5]; U-937, 0.0058 μg/ml", "result": 100.5, "unit": "%"},
      {"measurement": "Cell Growth", "setting": "[5]; U-937, 0.058 μg/ml", "result": 80.9, "unit": "%"},
      {"measurement": "Cell Growth", "setting": "[5]; U-937, 0.58 μg/ml", "result": 3.7, "unit": "%"},
      {"measurement": "Cell Growth", "setting": "[5]; U-937, 5.8 μg/ml", "result": 1.6, "unit": "%"},
      {"measurement": "antiproliferative effect", "setting": "[5]; U-937, positive control", "result": "very strong antiproliferative effect"},
      {"measurement": "Cell Growth", "setting": "[6]; MOLT 4, 0.0058 μg/ml", "result": 71.2, "unit": "%"},
      {"measurement": "Cell Growth", "setting": "[6]; MOLT 4, 0.058 μg/ml", "result": 0, "unit": "%"},
      {"measurement": "Cell Growth", "setting": "[6]; MOLT 4, 0.58 μg/ml", "result": 0, "unit": "%"},
      {"measurement": "Cell Growth", "setting": "[6]; MOLT 4, 5.8 μg/ml", "result": 0, "unit": "%"},
      {"measurement": "antiproliferative effect", "setting": "[6]; MOLT 4, positive control", "result": "very strong antiproliferative effect"},
      {"measurement": "Cell Growth", "setting": "[7]; 0.0058 μg/ml", "result": 103, "unit": "%"},
      {"measurement": "Cell Growth", "setting": "[7]; 0.058 μg/ml", "result": 81.53, "unit": "%"},
      {"measurement": "Cell Growth", "setting": "[7]; 0.58 μg/ml", "result": 38.8, "unit": "%"},
      {"measurement": "Cell Growth", "setting": "[7]; 5.8 μg/ml", "result": 14.4, "unit": "%"},
      {"measurement": "antiproliferative effect", "setting": "[7]", "result": "very strong antiproliferative effect"},
      {"measurement": "remission effect", "setting": "[8]", "result": "15-23%"}
    ]},
    {"molecule": "O=c1[nH]cc(F)c(=O)[nH]1", "note": "[5-FU]", "values": [
      {"measurement": "patients responded to the medicine", "setting": "[9]; 62 hepatoma patients, hepatic intra-arterial infusion", "result": 48, "unit": "%"},
      {"measurement": "survival, non-responders", "setting": "[9]; hepatoma patients who did not respond", "result": 1.8, "unit": "months"},
      {"measurement": "survival in average, responders", "setting": "[9]; hepatoma patients who responded", "result": 6.9, "unit": "months"}
    ]},
    {"molecule": "CCCCCCCCCCCCCCCC(=O)OC[C@@]12O[C@@H]1[C@@H]1C(=O)[C@]3(C=C(C)[C@H](OC(=O)C(C)C(C)C)[C@@]3(O)[C@@H]2O)[C@H](C)C[C@]2(OC(=O)CCCCCCCCCCC)[C@H]1C2(C)C", "note": "(stereo partly shown) [6,7-epoxy-13-hydroxyingenol-3-(2,3-dimethylbutanoate)-13 dodecanoate-20-hexadecanoate]", "values": [
      {"measurement": "antileukemic activity against P-388 lymphocytic leukemia", "setting": "[1]", "result": "antileukemic effect"}
    ]},
    {"molecule": "CC1=C[C@]23C(=O)[C@@H](C=C(COC(=O)c4ccccc4)[C@@H](O)[C@]2(O)[C@H]1OC(=O)c1ccccc1)[C@H]1[C@@H](C[C@H]3C)C1(C)C", "note": "[Ingenol 3,20-debenzoate]", "values": [
      {"measurement": "antileukemic activity against P-388 lymphocytic leukemia", "setting": "[1]", "result": "antileukemic activity"}
    ]}
  ]
}
